In patent US20260215412A1, “AGROCHEMICAL FORMULATION” (priority 2023, published 2026):

How the values were obtained:
[1] = Solubility of pydiflumetofen in solvents suitable for emulsion production; type: physicochemical
From the text: The choice of solvent for an agrochemical EC formulation is important and dependent upon the individual active ingredient that is the solute. In addition, the choice of solvent for an emulsifiable concentrate formulation can have an impact on the physical stability, application properties, and biological performance of the agrochemical formulation. In this case the active ingredient is the fungicide pydiflumetofen or 3-difluoromethyl-1-methyl-1H-pyrazole-4-carboxylic acid methoxy-[1-methyl-2-(2,4,6-trichlorophenyl)-ethyl]-amide to give it its IUPAC name (the name “pydiflumetofen” is used herein interchangeably with the IUPAC name 3-difluoromethyl-1-methyl-1H-pyrazole-4-carboxylic acid methoxy-[1-methyl-2-(2,4,6-trichlorophenyl)-ethyl]-amide).

[2] = Emulsion stability / emulsion quality testing upon dilution; type: physicochemical; conditions: for suitability as emulsifier for EC formulations of pydiflumetofen: sole surfactant in the test formulations (solo surfactant screens); for emulsion quality of two-way blends: non-ionic surfactant combined with anionic surfactant B^an in two-way blends
Method: Test sample of EC formulations of 3-difluoromethyl-1-methyl-1H-pyrazole-4-carboxylic acid methoxy-[1-methyl-2-(2,4,6-trichlorophenyl)-ethyl]-amide were diluted in standard water samples of known hardness (Table 5) in crow receivers, which were then incubated overnight at 5° C. and 30° C.
Emulsion quality was assessed visually after homogenising the samples through inversion, using a scale of 0 to 5 as shown in Table 7 below.
Further visual assessments were carried out 0.5, 2 and 24 hours post homogenisation and the volume of any cream or oil recorded. After 24 hours, the samples were re-homogenised and number of inversions required for re-emulsification was recorded and the samples were re-incubated at 5 or 30 (as appropriate) and a final visual assessment, including by microscopy was carried out.

## CON(C(=O)c1cn(C)nc1C(F)F)C(C)Cc1c(Cl)cc(Cl)cc1Cl (centres unmarked) [pydiflumetofen, 3-difluoromethyl-1-methyl-1H-pyrazole-4-carboxylic acid methoxy-[1-methyl-2-(2,4,6-trichlorophenyl)-ethyl]-amide]
[1]; solvent Acetophenone
  Solubility of pydiflumetofen at 25° C. %: 17.3%
[1]; solvent Dimethyl lactamide
  Solubility of pydiflumetofen at 25° C. %: 9.65%
[1]; solvent Dowanol DPM
  Solubility of pydiflumetofen at 25° C. %: 3.77%
[1]; solvent Ethyl lactate
  Solubility of pydiflumetofen at 25° C. %: 5.74%
[1]; solvent Gamma butyrolactone
  Solubility of pydiflumetofen at 25° C. %: 14.7%
[1]; solvent Methyl benzoate
  Solubility of pydiflumetofen at 25° C. %: 15.1%
[1]; solvent Octan-1-ol
  Solubility of pydiflumetofen at 25° C. %: 0.63%
[1]; solvent Solvesso 200 ND/ULN
  Solubility of pydiflumetofen at 25° C. %: 5.85%
[1]; solvent THFA (Tetrahydrofurfuryl acetate)
  Solubility of pydiflumetofen at 25° C. %: 9.7%
[1]; solvent Tributyl phosphate
  Solubility of pydiflumetofen at 25° C. %: 6.18%
[1]; solvent Triethyl phosphate
  Solubility of pydiflumetofen at 25° C. %: 8.82%
[1]; solvent Trimethylcyclohexanone
  Solubility of pydiflumetofen at 25° C. %: 10.2%

## Block copolymer of poyhrdroxystearic acid and polyalkylene glycol [C^ni]
[2]
  suitability as emulsifier for EC formulations of pydiflumetofen: most promising

## Castor oil ethoxylate [A^ni]
[2]
  emulsion quality of two-way blends: better quality emulsions overall

## POE (11)-synthetic primary C12/C15 alcohol [B^ni]
[2]
  emulsion quality of two-way blends: better quality emulsions overall
  suitability as emulsifier for EC formulations of pydiflumetofen: most promising

## Polyoxyethylene sorbitan monolaurate [D^ni]
[2]
  emulsion quality of two-way blends: better quality emulsions overall
